Reference: US5284838A, “Use of 2,2-dimethylchroman-3-ol derivatives in the treatment of asthma” (Elf Sanofi, priority 1987, dated 1994)
Read-outs that look alike come from different tables or passages of the source.

Experiments:
Isolated Rat Portal Vein = experiment: Isolated Rat Portal Vein: inhibition of spontaneous contractile activities; type: cell-based, Male Sprague Dawley rats; settings: for IC50: Rattus norvegicus, 0.25 h; for times more active than Product A: relative to Product A, isolated rat portal vein
Description: Male Sprague Dawley rats (250-300 g) are stunned and then bled after their throats have been cut. The portal vein, ligated in situ at two points 15 mm apart, is isolated, cut longitudinally and then mounted vertically in an experimental cell containing a physiological solution, at 37° C., of the following composition (mmol/l): NaCl:137; KCl: 5.4; MgCl2 : 1.05; CaCl2 : 1.8; NaH2 PO4 : 1.2; NAHCO3 : 15.5; glucose: 11.5, into which a mixture of gases containing 95% of oxygen and 5% of carbon dioxide is bubbled.
The vein is subjected to a tension of 500 mg. After a period of stabilization (about 1 h 30 min), the spontaneous contractile activities are recorded with the aid of an isometric sensor. Each measurement is performed successively on 4 preparations.
The results are expressed in the form of the molar concentration which causes a 50 per cent inhibition of the spontaneous contractile activities (IC50).

mice = experiment: Acute toxicity on mice by oral administration; type: in vivo; settings: 1000 mg/kg, 10 mice
[1] = tested on: Vigilant Spontaneously Hypertensive Rats (SHR); experiment: Antihypertensive Activity on Vigilant Spontaneously Hypertensive Rats (SHR); type: in vivo, male SHR (of the Wistar strain) rats; settings: for duration of action compared with Product A: p.o.
Description: The experiment is performed on male SHR (of the Wistar strain) aged between 11 and 12 weeks; under pentobarbital anesthesia, a catheter is implanted in a carotid artery on the day before the experiment. In the experiment, the diastolic pressure (DP) and systolic pressure (SP) of the vigilant animals are recorded continuously 1 hour before and up to 2 hours after administration of the product. The heart rate (HR) is determined from the pulse pressure and recorded continuously for the same time.
The products were administered orally in a volume of 2 ml per 100 g of body weight after suspension in a 5% aqueous solution of gum arabic.

[2] = tested on: Guinea-pig Papillary Muscle; experiment: Guinea-pig Papillary Muscle: ventricular action potential; type: cell-based, Male Albino Charles River guinea-pigs; settings: Cavia porcellus, 0.5 h; 36° C., 60 beats per minute, 30 minutes of perfusion per concentration; read-out: Duration of the action potential: IC50 (50 per cent reduction in the duration of the AP)
Description: Male Albino Charles River guinea-pigs (300-400 g) are stunned and then bled after their throats have been cut. The heart is isolated and opened and the right papillary muscle is excised and then kept alive in an experimental cell containing a physiological solution at 36° C. (composition described above).
The preparation is stimulated with the aid of a bipolar electrode connected to a stimulator (frequency=60 beats per minute). The ventricular action potential is measured by the conventional microelectrode method. The characteristic parameters were measured on the action potentials (AP) before and after the introduction of the test product at 3 successive increasing concentrations (30 minutes of perfusion per concentration). The concentration which produces a 50 per cent reduction in the duration of the AP is indicated (IC50).

Vigilant Dogs = experiment: Antiarrhythmic Activity on Vigilant Dogs; type: in vivo; settings: orally
Description: The method used is that described by Dupuis et al. (Br. J. Pharmacol., 1976, 58, p. 409), in which an acute infarction is caused by the insertion of a copper spiral into the coronary circulation, with the thorax closed off. The electrocardiogram is measured by telemetry and the extrasystoles are analyzed and counted automatically while the animal is being monitored by an internal television circuit. The products were administered orally to animals presenting at least 50 percent of extrasystoles.

[3] = 37° C., 15 min per concentration, read-out: IC50 of the spontaneous contractile activities of isolated rat portal vein
[4] = unit inferred, read-out: IC50 values equal to or less than (isolated rat portal vein)

| SMILES | IC50 (Isolated Rat Portal Vein; [3]) | Maximum decrease in mean blood pressure (±s.e.) ([1]; 0.03 mg/kg p.o.) | Maximum decrease in mean blood pressure (±s.e.) ([1]; 0.10 mg/kg p.o.) | IC50 [2] | IC50 (Isolated Rat Portal Vein; [4]) | times more active than Product A (Isolated Rat Portal Vein) | also measured |
| --- | --- | --- | --- | --- | --- | --- | --- |
| CC1(C)Oc2ccc(C#N)cc2[C@@H](N2CCCC2=O)[C@@H]1O (relative stereo) [Product A, trans-6-Cyano-4-(2-oxopyrrolidin-1-yl)-2,2-dimethylchroman-3-ol, reference compound] | 68 nM | 16 ± 5 mm of mercury | 30 ± 10 mm of mercury | 16000 nM |  |  | acute toxicity: survival / death of the animals (mice): all 10 animals died |
| CC1(C)Oc2ccc(C#N)cc2[C@@H](n2ccccc2=O)[C@@H]1O (relative stereo) [SR 44 709, trans-6-Cyano-4-(I,2-dihydro-2-oxopyrid-1-yl)2,2-dimethylchroman-3-ol] | 90 nM |  | 39 ± 12 mm of mercury | 20000 nM |  |  | antiarrhythmic activity (reducing the number of extrasystoles or restoring a sinus rhythm) (Vigilant Dogs; 1 mg/kg): substantial antiarrhythmic activity; acute toxicity: survival / death of the animals (mice): all the animals survived; Maximum decrease in mean blood pressure (±s.e.) ([1]; 0.06 mg/kg p.o.): 21 ± 5 mm of mercury |
| CC1(C)Oc2ccc(C#N)cc2[C@@H](n2ncccc2=O)[C@@H]1O (relative stereo) [SR 44 758, trans-6-Cyano-4-(1,6-dihydro-6-oxopyridazin-1-yl)-2,2-dimethylchroman-3-ol] | 130 nM | 12 ± 2 mm of mercury | 33 ± 5 mm of mercury |  |  |  |  |
| CC1(C)Oc2ccc(C#N)cc2[C@@H](n2ccc(O)cc2=O)[C@@H]1O (relative stereo) [SR 44 793, trans-6-Cyano-4-(I,2-dihydro-4-hydroxy-2-oxopyrid-1-yl)-2,2-dimethylchroman-3-ol] | 34 nM | 22 ± 2 mm of mercury | 50 ± 9 mm of mercury | 2700 nM | ≤ 34 nM | at least 5 times | antiarrhythmic activity (reducing the number of extrasystoles or restoring a sinus rhythm) (Vigilant Dogs; between 0.1 and 0.5 mg/kg): substantial antiarrhythmic activity; Maximum decrease in mean blood pressure (±s.e.) ([1]; 0.06 mg/kg p.o.): 26 ± 3 mm of mercury; duration of action compared with Product A [1]: longer duration of action than Product A |
| CC1(C)Oc2ccc(C#N)cc2[C@@H](n2nc(O)ccc2=O)[C@@H]1O (relative stereo) [SR 44 994, trans-6-Cyano-4-(I,6-dihydro-3-hydroxy-6-oxopyridazin-1-yl)-2,2-dimethylchroman-3-ol] | 9 nM | 14 ± 0 mm of mercury | 37 ± 4 mm of mercury | 4000 nM | ≤ 34 nM | at least 5 times | duration of action compared with Product A [1]: longer duration of action than Product A |
| CC1(C)Oc2ccc(C#N)cc2[C@@H](n2ccc(Cl)cc2=O)[C@@H]1O (relative stereo) [SR 45 012] | 26 nM |  |  |  | ≤ 34 nM | at least 5 times |  |
| CC1(C)Oc2ccc(C#N)cc2[C@@H](n2ccncc2=O)[C@@H]1O (relative stereo) [SR 45 067] | 77 nM |  |  |  |  |  |  |
| Cc1ccn([C@@H]2c3cc(C#N)ccc3OC(C)(C)[C@H]2O)c(=O)c1 (relative stereo) [SR 45 135] | 80 nM |  |  |  |  |  |  |
| Cc1cc(O)nn([C@@H]2c3cc(C#N)ccc3OC(C)(C)[C@H]2O)c1=O (relative stereo) [SR 45 209, trans-6-Cyano-4-(I,6-dihydro-3-hydroxy-5-methyl-6-oxopyridazin-1-yl)-2,2-dimethylchroman-3-ol] | 58 nM |  |  |  |  |  |  |
| Cc1cc(=O)n([C@@H]2c3cc(C#N)ccc3OC(C)(C)[C@H]2O)nc1O (relative stereo) [SR 45 218, trans-6-Cyano-4-(I,6-dihydro-3-hydroxy-4-methyl-6-oxopyridazin-1-yl)-2,2-dimethylchroman-3-ol] | 20 nM |  |  |  | ≤ 34 nM | at least 5 times |  |
| Cc1ccc(=O)n([C@@H]2c3cc(C#N)ccc3OC(C)(C)[C@H]2O)n1 (relative stereo) [SR 45 225, trans-6-Cyano-4-(I,6-dihydro-3-methyl-6-oxopyridazin-1-yl)-2,2-dimethylchroman-3-ol] | 88 nM |  |  |  |  |  |  |
| CC1(C)Oc2ccc(C#N)cc2[C@@H](n2ccc(F)cc2=O)[C@@H]1O (relative stereo) [SR 45 311, trans-6-Cyano-4-(1,2-dihydro-4-fluoro-2-oxopyrid-1-yl)-2,2-dimethylchroman-3-ol] | 50 nM |  |  |  |  |  |  |
